Results on one substance are retold here after patent publication US6652890B2, “Tea catechins as cancer specific proliferation inhibitors” (Purdue Research Foundation, priority 1999, dated 2003).

The target in assay [1] is T1, tNOX activity of HeLa S cells (Homo sapiens, UniProt Q16206).
T1 construct: Response of the NADH oxidase of HeLa S cells to (−)-epigallocatechin gallate (EGCg) alone; endogenous in cells; methods say ATCC CCL2
T1 sequence (Q16206 1-610): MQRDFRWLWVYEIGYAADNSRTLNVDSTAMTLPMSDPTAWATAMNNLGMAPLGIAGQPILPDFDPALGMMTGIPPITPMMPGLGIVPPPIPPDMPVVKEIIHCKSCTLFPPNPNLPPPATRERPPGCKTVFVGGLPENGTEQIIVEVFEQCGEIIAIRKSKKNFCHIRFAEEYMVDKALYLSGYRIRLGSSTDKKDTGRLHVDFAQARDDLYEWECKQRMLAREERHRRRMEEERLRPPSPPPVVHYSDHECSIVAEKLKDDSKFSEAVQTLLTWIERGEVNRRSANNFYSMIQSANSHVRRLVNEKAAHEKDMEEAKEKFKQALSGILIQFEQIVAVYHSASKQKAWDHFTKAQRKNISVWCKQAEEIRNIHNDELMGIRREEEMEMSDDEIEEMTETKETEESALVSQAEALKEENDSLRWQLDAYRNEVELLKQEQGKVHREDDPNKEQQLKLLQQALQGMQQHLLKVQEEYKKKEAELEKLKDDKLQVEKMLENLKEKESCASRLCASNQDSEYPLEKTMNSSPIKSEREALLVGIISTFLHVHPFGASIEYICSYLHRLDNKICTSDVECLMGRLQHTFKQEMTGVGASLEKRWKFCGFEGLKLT
Briefly: NADH oxidase of intact HeLa (HeLa S) cells. It counts as cell-based. Here is the method: HeLa (ATCC CCL2) cells were grown in 150 cm^2 flasks in Minimal Essential Medium (Gibco), pH 7.4, at 37° C. with 10% bovine calf serum (heat-inactivated), plus 50 mg/l gentamicin sulfate (Sigma). Cells were trypsinized with Sigma IX trypsin for 1 to 2 min and harvested by scraping and taken up in 140 mM NaCl, 5 mM KCl, 0.7 mM Na2HPO4 and 25 mM Tris, pH 7.4, to a final cell concentration of 0.1 g wet weight (gww) per ml.
NADH oxidase activity was determined as the disappearance of NADH measured at 340 nm in a reaction mixture containing 25 mM Tris-Mes buffer (pH 7.2), 1 mM KCN, and 150 μM NADH at 37° C. Activity was measured using a Hitachi U3210 spectrophotometer with stirring and continuous recording over two intervals of 5 min each. A millimolar extinction coefficient of 6.22 was used to determine specific activity.

The subject of assay [2] is 4T1 metastatic mouse mammary cancer cells. Briefly: Killing of 4T1 metastatic mouse mammary cancer cells in culture. It counts as cell-based. The following applies: EGCg 10^−7 M, EC 10^−4 M, alone or combined.
Assay [3] has as its target T2, NADH oxidase of plasma membranes from MCF-10A human mammary epithelial (non-cancer) cells (Homo sapiens, UniProt Q8TC92).
T2 construct: endogenous in cells; host or cells: MCF-10A plasma membrane vesicles
T2 sequence (Q8TC92 1-643): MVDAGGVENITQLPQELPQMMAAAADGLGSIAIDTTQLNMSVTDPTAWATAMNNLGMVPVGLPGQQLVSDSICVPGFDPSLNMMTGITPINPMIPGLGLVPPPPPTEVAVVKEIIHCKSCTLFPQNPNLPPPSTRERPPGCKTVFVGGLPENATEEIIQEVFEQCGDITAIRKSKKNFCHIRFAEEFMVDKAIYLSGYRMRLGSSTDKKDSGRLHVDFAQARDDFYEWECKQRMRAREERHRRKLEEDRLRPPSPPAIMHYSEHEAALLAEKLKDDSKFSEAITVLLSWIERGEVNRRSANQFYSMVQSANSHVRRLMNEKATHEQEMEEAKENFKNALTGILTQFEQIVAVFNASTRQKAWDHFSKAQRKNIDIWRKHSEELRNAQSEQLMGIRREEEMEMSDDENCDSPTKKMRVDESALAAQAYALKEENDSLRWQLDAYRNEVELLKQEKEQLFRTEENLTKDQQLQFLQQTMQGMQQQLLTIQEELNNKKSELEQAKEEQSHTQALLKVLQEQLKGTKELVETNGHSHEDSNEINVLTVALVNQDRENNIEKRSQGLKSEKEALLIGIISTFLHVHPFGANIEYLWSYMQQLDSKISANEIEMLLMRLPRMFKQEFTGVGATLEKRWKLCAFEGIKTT
Nature of the assay: NADH oxidase activity of isolated plasma membrane vesicles. It counts as biochemical. The following applies: EGCg dose-response, FIG. 2A. Here is the method:
Cultured cells were collected by centrifugation for 6-15 min at 175-1000×g. The cell pellets were resuspended in 0.2 mM EDTA in 1 mM NaHCO3 in an approximate ratio of 1 ml per 10^8 cells and incubated on ice for 10-30 min to swell the cells. […] To estimate breakage, the cells were monitored by light microscopy before and after homogenization. At least 90% cell breakage without breakage of nuclei was achieved routinely.
The homogenates were centrifuged for 10 min at 175×g to remove unbroken cells and nuclei and the supernatant was centrifuged a second time at 1.4×10^6 g·min (e.g., 1 h at 23,500×g) to prepare a plasma membrane-enriched microsome fraction. The supernatant was discarded and the pellets were resuspended in 0.2 M potassium phosphate buffer in a ratio of ˜1 ml per pellet from 5×10^8 cells. […] The purity of the plasma membrane was determined to be >90% by electron microscope morphometry. […]
NADH oxidase activity was determined as the disappearance of NADH measured at 340 nm in a reaction mixture containing 25 mM Tris-Mes buffer (pH 7.2), 1 mM KCN to inhibit low levels of mitochondrial oxidase activity, and […] at 37° C. with stirring. Activity was measured using a Hitachi U3210 or SLM Aminco DW2000 spectrophotometer with continuous recording over two intervals of 5 min each. […]

Consider (−) - epigallocatechin gallate [EGCg], for which, in assay [1], the “EGCg concentration at which NOX activity was stimulated” value is given as ≥ 10^−5 M. Moreover, the “EGCg concentration for maximal inhibition of tNOX activity” value in assay [1] (EGCg alone, FIG. 12) is 0.1 µM. Further, the “Increase in cell number cm^−2 over 72 h · 10^2” value in assay [2] was determined as 520 cm^−2 · 10^2. Besides, the “Effect on NADH oxidase activity” value in assay [3] is listed as “without effect”.
